According to patent US20230271950A1, “ANTIBACTERIAL PICOLINAMIDE COMPOUNDS” (University of Notre Dame Du Lac, priority 2020, published 2023):
Like-named read-outs stand apart in the source and are kept apart here.

What was measured:
[1] = test system: Veillonella sp. HM-49; test: MIC against gut bacterium Veillonella sp.; format: cell-based
[2] = test system: Fecal microbiota preparation; test: MIC against fecal microbiota preparation; format: cell-based; details: Fecal microbiota preparation from OpenBiome tested at 1000-fold dilution
Description: Minimum inhibitory concentrations (MIC). MICs for C. difficile strains and the common gut bacteria were determined using broth microdilution techniques as reported earlier using brucella broth supplemented with hemin and vitamin K or supplemented BHIS broth. Lactobacillus MRS broth was used for lactobacillus strains. Sodium lactate was supplemented in the media for Veillonella sp. […] All incubations, unless specified otherwise, were carried out at 24 h or 48 h at 37° C. in an anaerobic chamber (Whitley DG250 workstation, Microbiology International, Frederick, Md.). Corynebacterium and Lactobacillus species were incubated aerobically.

[3] = test system: Lactobacillus gasseri; test: MIC against gut bacterium Lactobacillus gasseri; format: cell-based
[4] = test system: Eubacterium sp.; test: MIC against gut bacterium Eubacterium sp.; format: cell-based; details: Eubacterium, Eubacterium sp. strain HM-178, read-out: MIC
[5] = test system: Bacteroides fragilis; test: MIC against gut bacterium Bacteroides fragilis; format: cell-based; details: Bacteroides fragilis, Bacteroides fragilis strain HM-709, read-out: MIC
[6] = test system: Corynebacterium spp.; test: MIC against gut bacterium Corynebacterium spp.; format: cell-based; details: Corynebacterium, Corynebacterium spp. strain HM-784
[7] = test system: S. aureus ATCC29213; test: MIC against MSSA; format: cell-based, Staphylococcus aureus; details: Staphylococcus aureus; S. aureus ATCC29213; Table 1; read-out: MIC
[8] = test system: Bifidobacterium longum; test: MIC against gut bacterium Bifidobacterium longum; format: cell-based; details: Bifidobacterium longum, Bifidobacterium longum strain HM-846, read-out: MIC
[9] = test system: C. difficile; test: MIC by broth microdilution against C. difficile strains; format: cell-based, Clostridioides difficile; details: Clostridioides difficile, read-out: MIC

Measured: MIC

Cc1ncc([N+](=O)[O-])n1CCO [MTZ, metronidazole, reference compound]
0.25 µg/mL: [9]; ATCC43255, C. difficile ATCC43255 (TcdA+, TcdB+), Table 1 | [9]; ATCC43255, C. difficile ATCC43255, Table 7 | [9]; ATCC43255, C. difficile ATCC43255, Table 9 | [9]; BAA1804, C. difficile BAA-1804, Table 7 | [9]; BAA1804, C. difficile BAA-1804, Table 9 | [9]; BAA1812, C. difficile BAA-1812, Table 7 | [9]; BAA1812, C. difficile BAA-1812, Table 9 | [9]; BAA1814, C. difficile BAA-1814, Table 7 | [9]; BAA1814, C. difficile BAA-1814, Table 9 | [9]; C. difficile 24923 (VR, vancomycin-resistant), Table 7 | [9]; C. difficile 24923, Table 9 | [9]; C. difficile HM-88, Table 9 | [9]; C. difficile HM-89, Table 9 | [9]; C. difficile HM-746, Table 9 | [9]; C. difficile NR49292, Table 7 | [9]; C. difficile NR49292, Table 9 | [9]; C. difficile NR49294, Table 7 | [9]; C. difficile NR49294, Table 9 | [9]; C. difficile NR49305, Table 7 | [9]; C. difficile NR49305, Table 9 | [9]; C. difficile NR49318, Table 7 | [9]; C. difficile NR49318, Table 9 | [9]; C. difficile NR-32882, Table 9
2 µg/mL: [1]; SP.HM49, Veillonella sp. HM-49, Table 1, read-out: MIC | [1]; Veillonella sp. strain HM-49, Table 7
> 32 µg/mL: [3]; Lactobacillus gasseri, Lactobacillus gasser strain HM-644, Table 1, read-out: MIC | [6]; Table 1 | [6]; Table 7
1 µg/mL: [4]; Table 1 | [4]; Table 7 | [5]; Table 7 | [8]; Table 7 | [9]; C. difficile NR-13427, Table 9 | [9]; C. difficile NR-13428, Table 9 | [9]; C. difficile NR-13429, Table 9
0.5 µg/mL: [5]; Table 1 | [8]; Table 1 | [9]; BAA1803, C. difficile BAA-1803, Table 7 | [9]; BAA1803, C. difficile BAA-1803, Table 9 | [9]; BAA1870, C. difficile BAA-1870 (NAP1, ribotype 27), Table 1 | [9]; BAA1870, C. difficile BAA-1870, Table 7 | [9]; BAA1870, C. difficile BAA-1870, Table 9 | [9]; C. difficile 23691 (VR, vancomycin-resistant), Table 7 | [9]; C. difficile 23691, clinical isolate resistant to VAN, Table 1 | [9]; C. difficile 23691, Table 9 | [9]; C. difficile 23828 (FR, fidaxomicin-resistant), Table 7 | [9]; C. difficile 23828, clinical isolate resistant to FDX, Table 1 | [9]; C. difficile 23828, Table 9 | [9]; C. difficile 24531 (VR, vancomycin-resistant), Table 7 | [9]; C. difficile 24531, Table 9 | [9]; C. difficile 27081 (FR, fidaxomicin-resistant), Table 7 | [9]; C. difficile 27081, Table 9 | [9]; C. difficile HM-745, Table 9 | [9]; C. difficile HM-747, Table 9 | [9]; C. difficile NR-13430, Table 9 | [9]; C. difficile NR-13431, Table 9 | [9]; C. difficile NR-13433, Table 9 | [9]; C. difficile NR-13434, Table 9 | [9]; C. difficile NR-13435, Table 9 | [9]; C. difficile NR-13436, Table 9 | [9]; C. difficile NR-13437, Table 9 | [9]; C. difficile NR-13438, Table 9 | [9]; C. difficile NR-13553, Table 9
> 128 µg/mL: [2] | [7]
>32 µg/mL: [3]; Lactobacillus gasseri strain HM-644, Table 7
4 µg/mL: [9]; C. difficile 26675 (MR, metronidazole-resistant), Table 7 | [9]; C. difficile 26675, clinical isolate resistant to MTZ, Table 1 | [9]; C. difficile 26675, Table 9 | [9]; C. difficile 27173 (MR, metronidazole-resistant), Table 7 | [9]; C. difficile 27173, Table 9
